Test results published in article PMC9516332 (Frontiers in Oncology, 2022).
Where two headings read alike, the source gives them in different places.

How the values were obtained:
Test in all cases: Kinase panel profiling at 1 µmol/L (MSA or IMAP), percentage inhibition
Type in all cases: biochemical
[1] = target: panel of 255 wild-type kinases (Homo sapiens, UniProt P19525); conditions: read-out: %-inhibition at 1 µmol/L, PKR
[2] = target: panel of 255 wild-type kinases (Homo sapiens, UniProt P27448); conditions: read-out: %-inhibition, MARK3
[3] = target: panel of 255 wild-type kinases (Homo sapiens, UniProt P42685); conditions: read-out: %-inhibition at 1 µmol/L, FRK
[4] = target: panel of 255 wild-type kinases (Homo sapiens, UniProt P68400); conditions: read-out: %-inhibition at 1 µmol/L, CK2α1/β
[5] = target: panel of 255 wild-type kinases (Homo sapiens, UniProt Q16620); conditions: read-out: %-inhibition at 1 µmol/L, TRKB
[6] = target: panel of 255 wild-type kinases (Homo sapiens, UniProt Q16644); conditions: read-out: %-inhibition, MAPKAPK3
[7] = target: T1, panel of 255 wild-type kinases (Homo sapiens, UniProt Q8IWQ3); conditions: read-out: %-inhibition BRSK2
T1 sequence (Q8IWQ3 1-736): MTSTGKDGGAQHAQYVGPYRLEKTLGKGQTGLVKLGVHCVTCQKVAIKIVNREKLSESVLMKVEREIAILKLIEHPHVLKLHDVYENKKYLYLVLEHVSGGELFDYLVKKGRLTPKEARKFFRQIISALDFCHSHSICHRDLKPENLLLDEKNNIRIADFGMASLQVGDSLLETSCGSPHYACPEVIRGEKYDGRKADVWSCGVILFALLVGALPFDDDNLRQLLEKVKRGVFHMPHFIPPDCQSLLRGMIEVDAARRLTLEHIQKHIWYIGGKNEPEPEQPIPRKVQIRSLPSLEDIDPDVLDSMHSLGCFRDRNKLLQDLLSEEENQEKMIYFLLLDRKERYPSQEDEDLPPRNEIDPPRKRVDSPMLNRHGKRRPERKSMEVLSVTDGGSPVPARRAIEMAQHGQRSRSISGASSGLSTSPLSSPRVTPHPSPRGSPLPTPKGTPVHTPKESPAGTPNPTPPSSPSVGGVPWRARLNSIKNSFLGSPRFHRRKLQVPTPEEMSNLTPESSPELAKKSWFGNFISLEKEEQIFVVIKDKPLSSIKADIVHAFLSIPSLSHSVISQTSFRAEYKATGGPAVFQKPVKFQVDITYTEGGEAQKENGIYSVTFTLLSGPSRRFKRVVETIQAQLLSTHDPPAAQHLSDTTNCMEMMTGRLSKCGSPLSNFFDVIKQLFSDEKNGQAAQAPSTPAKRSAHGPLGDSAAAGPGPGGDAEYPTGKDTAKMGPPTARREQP

[8] = target: T2, panel of 255 wild-type kinases (Homo sapiens, UniProt Q92630); conditions: read-out: %-inhibition at 1 µmol/L, DYRK2
T2 sequence (Q92630 1-601): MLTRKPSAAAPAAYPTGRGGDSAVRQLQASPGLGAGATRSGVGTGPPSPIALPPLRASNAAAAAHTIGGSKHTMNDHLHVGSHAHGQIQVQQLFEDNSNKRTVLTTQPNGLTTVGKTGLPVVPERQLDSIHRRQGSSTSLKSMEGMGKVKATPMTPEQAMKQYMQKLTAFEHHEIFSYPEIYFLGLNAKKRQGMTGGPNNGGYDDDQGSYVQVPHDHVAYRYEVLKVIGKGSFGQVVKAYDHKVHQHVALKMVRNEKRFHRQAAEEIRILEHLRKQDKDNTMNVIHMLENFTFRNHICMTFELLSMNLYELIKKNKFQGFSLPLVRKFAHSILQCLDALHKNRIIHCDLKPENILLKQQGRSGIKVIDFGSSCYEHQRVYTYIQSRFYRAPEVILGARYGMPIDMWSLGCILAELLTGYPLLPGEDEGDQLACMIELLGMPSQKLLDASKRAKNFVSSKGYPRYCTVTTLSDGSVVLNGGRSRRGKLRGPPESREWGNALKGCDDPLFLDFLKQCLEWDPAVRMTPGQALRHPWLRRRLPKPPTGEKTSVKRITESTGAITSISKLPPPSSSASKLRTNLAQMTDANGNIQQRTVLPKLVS

[9] = target: panel of 255 wild-type kinases (Homo sapiens, UniProt Q9HCP0); conditions: read-out: %-inhibition at 1 µmol/L, CK1γ1
[10] = target: panel of 255 wild-type kinases (Homo sapiens, UniProt Q9Y243); conditions: read-out: %-inhibition AKT3
[11] = target: panel of 255 wild-type kinases (Homo sapiens, UniProt Q9Y5S2); conditions: read-out: %-inhibition, MRCKβ
[12] = target: panel of 255 wild-type kinases (Homo sapiens, UniProt Q9Y6E0); conditions: read-out: %-inhibition, MST3
[13] = kinase PKR, 1 µmol/L single concentration
[14] = MARK3, 1 µmol/L single concentration
[15] = kinase FRK, 1 µmol/L single concentration
[16] = kinase CK2α1/β, 1 µmol/L single concentration
[17] = kinase TRKB, 1 µmol/L single concentration
[18] = MAPKAPK3, 1 µmol/L single concentration
[19] = BRSK2 kinase assay, 1 µmol/L single concentration
[20] = kinase DYRK2, 1 µmol/L single concentration
[21] = kinase CK1γ1, 1 µmol/L single concentration
[22] = AKT3 kinase assay, 1 µmol/L single concentration
[23] = MRCKβ, 1 µmol/L single concentration
[24] = MST3, 1 µmol/L single concentration

Row | Structure (SMILES) | inhibition at 1 µM [1, 13] | inhibition at 1 µM [2, 14] | inhibition at 1 µM [3, 15] | inhibition at 1 µM [4, 16] | inhibition at 1 µM [5, 17] | inhibition at 1 µM [6, 18] | inhibition at 1 µM [7, 19] | inhibition at 1 µM [8, 20] | inhibition at 1 µM [9, 21] | inhibition at 1 µM [10, 22] | inhibition at 1 µM [11, 23] | inhibition at 1 µM [12, 24] | other results
1 | Cc1nc(NC(=O)N2CCC[C@H]2C(N)=O)sc1-c1ccnc(C(C)(C)C(F)(F)F)c1 [alpelisib] | -1% | 11% | -2.26% | -1.52% | -2.43% | -13% | 14% | 7% | -1.77% | -0.151% | -7% | -4.63% | –
2 | Cn1cc(-c2cc3c(N4CCN(c5ncc([C@@](C)(N)c6ccc(F)cc6)cn5)CC4)ncnn3c2)cn1 [avapritinib] | 9% | -6% | 25% | -3.77% | 48% | -4% | 11% | 56% | 28% | -5% | 12% | 12% | –
3 | Cn1cnc2c(F)c(Nc3ccc(Br)cc3F)c(C(=O)NOCCO)cc21 [binimetinib] | -11% | 7% | 3% | -4.22% | 3.62% | -11% | -13% | 6.52% | 1.68% | -5.69% | 1.58% | 1.89% | –
4 | CNC(=O)c1ccc(-c2cnc3ncc(Cc4ccc5ncccc5c4)n3n2)cc1F [capmatinib] | – | – | – | – | – | – | – | – | – | – | – | – | inhibition at 1 µM [1]: 7%; inhibition at 1 µM [2]: -0.936%; inhibition at 1 µM [3]: -2%; inhibition at 1 µM [4]: -3.18%; inhibition at 1 µM [5]: 16%; inhibition at 1 µM [6]: -11%; inhibition at 1 µM [7]: 1%; inhibition at 1 µM [8]: 8%; inhibition at 1 µM [9]: -1.88%; inhibition at 1 µM [10]: -5%; inhibition at 1 µM [11]: -1.73%; inhibition at 1 µM [12]: 0.296%
5 | COc1cc2ncnc(Nc3ccc(F)c(Cl)c3)c2cc1NC(=O)/C=C/CN1CCCCC1 [dacomitinib] | 3.25% | 10% | 70% | -4% | 6% | -25% | 6.47% | 38% | 1.84% | -5% | 8% | 27% | –
6 | C[C@H](Nc1ncnc2nc[nH]c12)c1cc2cccc(Cl)c2c(=O)n1-c1ccccc1 [duvelisib] | 2.64% | 12% | -2.26% | -2.47% | -0.401% | -13% | 11% | 8% | -1.46% | 0.279% | -7% | 0.418% | –
7 | COC(=O)N[C@@H](C)CNc1nccc(-c2cn(C(C)C)nc2-c2cc(Cl)cc(NS(C)(=O)=O)c2F)n1 [encorafenib] | – | 8% | 8% | -1% | 7.42% | -15% | -8% | 11% | 26% | -0.872% | 1.73% | 7% | –
8 | CN1CCN(c2ccc(C(=O)Nc3n[nH]c4ccc(Cc5cc(F)cc(F)c5)cc34)c(NC3CCOCC3)c2)CC1 [entrectinib] | 3.49% | 15% | 96% | 1.84% | – | -10% | 18% | 11% | -1.18% | -1.28% | -7% | 7.48% | –
9 | CCc1nc(C(N)=O)c(Nc2ccc(N3CCC(N4CCN(C)CC4)CC3)c(OC)c2)nc1NC1CCOCC1 [gilteritinib] | – | 52% | 95% | 15% | 98% | -16% | 23% | 39% | 11% | -4.56% | 47% | 5% | –
10 | CCN1CCN(c2ccc(Nc3cc(N(C)C(=O)Nc4c(Cl)c(OC)cc(OC)c4Cl)ncn3)cc2)CC1 [infigratinib] | 76% | -7.59% | – | -4% | 6% | -17% | 2.65% | -3.43% | -0.947% | -7% | -0.837% | 7% | –
11 | O=C(Nc1cnn2ccc(N3CCC[C@@H]3c3cc(F)ccc3F)nc12)N1CC[C@H](O)C1 [larotrectinib] | -2.17% | 4% | -0.308% | -2.37% | 102% | -16% | 0.485% | 6% | -4.74% | -5.46% | -2.21% | 1.65% | –
12 | C[C@H]1Oc2cc(cnc2N)-c2c(nn(C)c2C#N)CN(C)C(=O)c2ccc(F)cc21 [lorlatinib] | 0.666% | 26% | – | -2% | – | -10% | 36% | 4.35% | -2.3% | -0.768% | 2.78% | -1.26% | –
13 | CCN1C(=O)N(c2c(F)c(OC)cc(OC)c2F)Cc2cnc3[nH]c(CN4CCOCC4)cc3c21 [pemigatinib] | 85% | 56% | 10% | -2.8% | 11% | -12% | 3.17% | 12% | -5.5% | -2.7% | -4.4% | 80% | –
